Measurements as given in paper PMC6066642 (2018).

Experiments:
[1] = test system: hTeloCFID (DNA, i motif) TAACCCTAACCCTAACCCTAACCC; assay: fluorescent intercalator displacement; conditions: Na+ (10 mM NaH2PO4); pH 5.7; thiazole orange 2 μM displaced
[2] = test system: mutTel24 (DNA, G4) TTGGGTTAGGGTTAGGGTTAGGGA; assay: CD melting; conditions: K+ (10 mM potassium phosphate); pH 5.7; 5 equivalents of compound, 10-15 μM DNA
[3] = test system: mutTel24FID (DNA, G4) TTTGGGTTAGGGTTAGGGTTAGGGA; assay: fluorescent intercalator displacement; conditions: K+ (10 mM KH2PO4); pH 5.7; thiazole orange 2 μM displaced
[4] = test system: hTeloC (DNA, i motif) CCCTAACCCTAACCCTAACCCT; assay: CD melting; conditions: Na+ (10 mM sodium phosphate); pH 5.7; 5 equivalents of compound, 10-15 μM DNA

Row | Structure (SMILES) | DC50 [1] | ΔT1/2 [2] | DC50 [3] | ΔT1/2 [4]
1 | CN(C)c1ccc(Nc2c3ccc(NC(=O)CCN4CCCC4)cc3nc3cc(NC(=O)CCN4CCCC4)ccc23)cc1 | 0.87 ± 8.08E-04 μM | +8.9 ± 0.5 °C | 0.50 ± 1.95E-03 μM | -9.2 ± 0.5 °C
2 | COc1ccc2cc3[n+](cc2c1OC)CCc1cc2c(cc1-3)OCO2 | 1.46 ± 5.88E-03 μM | +12.4 ± 0.5 °C | 1.26 ± 7.22E-03 μM | -0.8 ± 0.5 °C
3 | C[n+]1cc(NC(=O)c2ccc3ccc4ccc(C(=O)Nc5cc6ccccc6[n+](C)c5)nc4c3n2)cc2ccccc21 | 0.95 ± 3.79E-03 μM | +14.4 ± 0.5 °C | 0.39 ± 1.42E-03 μM | -6.8 ± 0.5 °C
4 | Cc1cc2c3c([n+](C)c4ccc(F)cc4c3c1)-c1cc(F)ccc1N2C | – | +20.6 ± 0.5 °C | – | -0.3 ± 0.5 °C
5 | NCCOc1cc(C(=O)Nc2cc(OCCN)c3ccccc3n2)nc(C(=O)Nc2cc(OCCN)c3ccccc3n2)c1 | 18.02 ± 5.89E-02 μM | +8.8 ± 0.5 °C | 9.42 ± 3.90E-02 μM | +0.8 ± 0.5 °C
6 | O=C1c2c(O)ccc(O)c2C(=O)c2c(NCCNCCO)ccc(NCCNCCO)c21 | 1.34 ± 6.99E-03 μM | +4.5 ± 0.5 °C | 0.95 ± 6.07E-03 μM | -9.9 ± 0.5 °C
